Patent US20210101874A1, “MICROBIOCIDAL OXADIAZOLE DERIVATIVES” (SYNGENTA PARTICIPATIONS AG, priority 2017, published 2021)

Key:
[1] = system: Puccinia recondita f. sp. Tritici; experiment: Puccinia recondita f. sp. tritici / wheat / leaf disc curative (brown rust); format: in vivo; conditions: foliar, 200 ppm in the applied formulation, wheat leaf segments cv. Kanzler, applied 1 day after inoculation, compared to untreated, assessed 6 to 8 days after application, read-out: disease control
Outline: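 Curative leaf-segment test, cv. Kanzler: spore inoculation, dark storage 19° C/75% RH, compound spray 1 day post-inoculation. Then 12 h light/12 h dark, 19° C, 75% RH. Read-out: % disease control vs untreated check, 6–8 d after application.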

[2] = system: Glomerella lagenarium (Colletotrichum lagenarium); experiment: Glomerella lagenarium (Colletotrichum lagenarium) liquid culture / cucumber / preventative (anthracnose); format: cell-based; conditions: Colletotrichum orbiculare; 20 ppm in the applied formulation; conidia in PDB nutrient broth, 24° C.; 3 to 4 days after application; compared to untreated; read-out: disease control (inhibition of growth measured photometrically)
Outline: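 Test compound, diluted from DMSO, was mixed in microtiter wells with fungal conidia taken from cryogenic storage and suspended in PDB nutrient broth. After 3 to 4 days at 24 °C, photometric growth measurement gave antifungal activity as a percentage of the untreated control.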

[3] = system: Puccinia recondita f. sp. Tritici; experiment: Puccinia recondita f. sp. tritici / wheat / leaf disc preventative (brown rust); format: in vivo; conditions: foliar, 200 ppm in the applied formulation, wheat leaf segments cv. Kanzler, inoculated 1 day after application, compared to untreated, assessed 7 to 9 days after application, read-out: disease control
Outline: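 Wheat cv. Kanzler leaf segments on agar sprayed with diluted compound, inoculated with brown rust spores 1 day later. Kept at 19° C., 75% rh, 12 h light/dark; percent disease control versus untreated segments scored 7 to 9 days after application, compounds tested at 200 ppm.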

Phakopsora pachyrhizi = Phakopsora pachyrhizi / soybean / leaf disc preventative (Asian soybean rust); format: in vivo; conditions: foliar, 200 ppm in the applied formulation, soybean leaf disks, inoculated one day after application, compared to untreated, assessed 12 to 14 days after application, read-out: disease control
Experimental: Leaf disks or leaf segments of various plant species are cut from plants grown in a greenhouse. The cut leaf disks or segments are placed in multiwell plates (24-well format) onto water agar. The leaf disks are sprayed with a test solution before (preventative) or after (curative) inoculation. Compounds to be tested are prepared as DMSO solutions (max. 10 mg/ml) which are diluted to the appropriate concentration with 0.025% Tween20 just before spraying. The inoculated leaf disks or segments are incubated under defined conditions (temperature, relative humidity, light, etc.) according to the respective test system. A single evaluation of disease level is carried out 3 to 14 days after inoculation, depending on the pathosystem. Percent disease control relative to the untreated check leaf disks or segments is then calculated.
Soybean leaf disks are placed on water agar in multiwell plates (24-well format) and sprayed with the formulated test compound diluted in water. One day after application leaf discs are inoculated by spraying a spore suspension on the lower leaf surface. After an incubation period in a climate cabinet of 24-36 hours in darkness at 20° C. and 75% rh leaf disc are kept at 20° C. with 12 h light/day and 75% rh. The activity of a compound is assessed as percent disease control compared to untreated when an appropriate level of disease damage appears in untreated check leaf disks (12 to 14 days after application).
The following compounds at 200 ppm in the applied formulation give at least 80% disease control in this test when compared to untreated control leaf disks under the same conditions, which show extensive disease development.

SMILES | pest or weed control at 200 ppm [1] [%] | inhibition at 20 ppm [2] [%] | pest or weed control at 200 ppm [3] [%] | pest or weed control at 200 ppm (Phakopsora pachyrhizi) [%] | melting point [°C]
CN(Cc1ccc(-c2noc(C(F)(F)F)n2)cc1)S(=O)(=O)C1CC1 [Compound 1.10, N-methyl-N-[[4-[5-(trifluoromethyl)-1,2,4-oxadiazol-3-yl]phenyl]methyl] cyclopropanesulfonamide] | ≥ 80 | ≥ 80 | ≥ 80 | ≥ 80 | 102 to 105
CON(Cc1ccc(-c2noc(C(F)(F)F)n2)cc1)S(C)(=O)=O [Compound 1.5, N-methoxy-N-[[4-[5-(trifluoromethyl)-1,2,4-oxadiazol-3-yl]phenyl]methyl] methanesulfonamide] | ≥ 80 | ≥ 80 | – | – | 94 to 96
O=S(=O)(C1CC1)N(Cc1ccc(-c2noc(C(F)(F)F)n2)cc1)C1CC1 [Compound 1.2, N-cyclopropyl-N-[[4-[5-(trifluoromethyl)-1,2,4-oxadiazol-3-yl]phenyl]methyl] cyclopropanesulfonamide] | – | ≥ 80 | ≥ 80 | ≥ 80 | 90 to 92
CON(Cc1ccc(-c2noc(C(F)(F)F)n2)c(F)c1)S(C)(=O)=O [Compound 1.101, N-[[3-fluoro-4-[5-(trifluoromethyl)-1,2,4-oxadiazol-3-yl]phenyl]methyl]-N-methoxy-methanesulfonamide] | ≥ 80 | ≥ 80 | – | ≥ 80 | –
CCN(C(C)c1ccc(-c2noc(C(F)(F)F)n2)cc1)S(C)(=O)=O (centres unmarked) [Compound 4.1, N-ethyl-N-[1-[4-[5-(trifluoromethyl)-1,2,4-oxadiazol-3-yl]phenyl]ethyl] methanesulfonamide] | ≥ 80 | ≥ 80 | ≥ 80 | ≥ 80 | –
CN(Cc1ccc(-c2noc(C(F)(F)F)n2)cc1)S(C)(=O)=O [Compound 1.11, N-methyl-N-[[4-[5-(trifluoromethyl)-1,2,4-oxadiazol-3-yl]phenyl]methyl] methanesulfonamide] | ≥ 80 | ≥ 80 | ≥ 80 | ≥ 80 | 103 to 105
CCN(Cc1ccc(-c2noc(C(F)(F)F)n2)c(F)c1F)S(C)(=O)=O [Compound 1.104, N-[[2,3-difluoro-4-[5-(trifluoromethyl)-1,2,4-oxadiazol-3-yl]phenyl]methyl]-N-ethyl-methanesulfonamide] | ≥ 80 | ≥ 80 | ≥ 80 | ≥ 80 | 81 to 93
CN(C)S(=O)(=O)NCc1ccc(-c2noc(C(F)(F)F)n2)cc1 [Compound 2.3, 3-[4-[(dimethyl-sulfamoylamino)methyl]phenyl]-5-(trifluoromethyl)-1,2,4-oxadiazole] | ≥ 80 | ≥ 80 | ≥ 80 | ≥ 80 | 105 to 107
CCCNS(=O)(=O)N(C)Cc1ccc(-c2noc(C(F)(F)F)n2)cc1 [Compound 1.23, 3-[4-[[methyl (propylsulfamoyl)amino]methyl]phenyl]-5-(trifluoromethyl)-1,2,4-oxadiazole] | ≥ 80 | ≥ 80 | ≥ 80 | ≥ 80 | –
O=S(=O)(CC1CCOC1)NCc1ccc(-c2noc(C(F)(F)F)n2)cc1 (centres unmarked) [Compound 3.4, 1-tetrahydrofuran-3-yl-N-[[4-[5-(trifluoromethyl)-1,2,4-oxadiazol-3-yl]phenyl]methyl] methanesulfonamide] | ≥ 80 | ≥ 80 | ≥ 80 | ≥ 80 | 117 to 122
CCS(=O)(=O)N(Cc1ccc(-c2noc(C(F)(F)F)n2)cc1)OC [Compound 1.3, N-methoxy-N-[[4-[5-(trifluoromethyl)-1,2,4-oxadiazol-3-yl]phenyl]methyl] ethanesulfonamide] | ≥ 80 | ≥ 80 | ≥ 80 | ≥ 80 | 44 to 46
O=S(=O)(Nc1ccc(-c2noc(C(F)(F)F)n2)cc1)c1ccccc1 [Compound 3.35, N-[4-[5-(trifluoromethyl)-1,2,4-oxadiazol-3-yl]phenyl]benzene-sulfonamide] | – | ≥ 80 | ≥ 80 | ≥ 80 | 115 to 130
CCS(=O)(=O)N(C)Cc1ccc(-c2noc(C(F)(F)F)n2)cc1 [Compound 1.13, N-methyl-N-[[4-[5-(trifluoromethyl)-1,2,4-oxadiazol-3-yl]phenyl]methyl] ethanesulfonamide] | ≥ 80 | ≥ 80 | ≥ 80 | ≥ 80 | 85 to 88
CCN(Cc1ccc(-c2noc(C(F)(F)F)n2)c(F)c1)S(C)(=O)=O [Compound 1.102, N-ethyl-N-[[3-fluoro-4-[5-(trifluoromethyl)-1,2,4-oxadiazol-3-yl]phenyl]methyl] methanesulfonamide] | ≥ 80 | ≥ 80 | ≥ 80 | ≥ 80 | –
CCCS(=O)(=O)Nc1ccc(-c2noc(C(F)(F)F)n2)cc1 [Compound 2.38, N-[4-[5-(trifluoromethyl)-1,2,4-oxadiazol-3-yl]phenyl]propane-1-sulfonamide] | – | ≥ 80 | – | ≥ 80 | 65 to 75
CCNS(=O)(=O)N(C)Cc1ccc(-c2noc(C(F)(F)F)n2)cc1 [Compound 1.16, 3-[4-[[ethylsulfamoyl (methyl)amino]methyl]phenyl]-5-(trifluoromethyl)-1,2,4-oxadiazole] | ≥ 80 | ≥ 80 | ≥ 80 | ≥ 80 | 63 to 66
CCS(=O)(=O)NCc1ccc(-c2noc(C(F)(F)F)n2)cc1 [Compound 2.2, N-[[4-[5-(trifluoromethyl)-1,2,4-oxadiazol-3-yl]phenyl]methyl] ethanesulfon-amide] | ≥ 80 | ≥ 80 | ≥ 80 | ≥ 80 | 127 to 129
O=S(=O)(NCc1ccc(-c2noc(C(F)(F)F)n2)cc1)N1CCOCC1 [Compound 3.8, N-[[4-[5-(trifluoromethyl)-1,2,4-oxadiazol-3-yl]phenyl]methyl] morpholine-4-sulfonamide] | ≥ 80 | ≥ 80 | ≥ 80 | – | 108 to 110
CON(C(C)Cc1ccc(-c2noc(C(F)(F)F)n2)cc1)S(C)(=O)=O (centres unmarked) [Compound 4.2, N-methoxy-N-[1-methyl-2-[4-[5-(trifluoromethyl)-1,2,4-oxadiazol-3-yl]phenyl]ethyl] methanesulfonamide] | – | ≥ 80 | ≥ 80 | ≥ 80 | –
O=S(=O)(NCc1ccc(-c2noc(C(F)(F)F)n2)cc1)c1ccccc1F [Compound 3.7, 2-fluoro-N-[[4-[5-(trifluoromethyl)-1,2,4-oxadiazol-3-yl]phenyl]methyl] benzenesulfonamide] | – | ≥ 80 | ≥ 80 | ≥ 80 | 120 to 123
O=S(=O)(Nc1ccc(-c2noc(C(F)(F)F)n2)cc1)C1CC1 [Compound 3.33, N-[4-[5-(trifluoromethyl)-1,2,4-oxadiazol-3-yl]phenyl]cyclo-propanesulfonamide] | – | ≥ 80 | ≥ 80 | ≥ 80 | 130 to 140
